# Data taken from PubChem BioAssay AID1996.
# Conditions: buffer; pH 7.4; 200.0 µM
row,Compound,solubility kinetic [µg/mL]
1,CCN(CC)C(=O)CSc1nnc(SC(C)C(=O)NC2CC2)s1 (stereo not given),> 56.2
2,CCN(CC)CCCNc1ncnc2ccccc12.Cl,42.3
3,O=C(CSc1nnc2ccccn12)NC(=O)c1ccccc1Cl,> 52
4,COc1ccc(Nc2nc(NCC3CCCO3)nc(N)c2[N+](=O)[O-])cc1 (stereo not given),1.7
5,CC(C)On1c(SCC(=O)N(C)C)nc2ccccc2c1=O,> 48.2
6,O=C(NC1=NCCS1)c1ccc(F)c(S(=O)(=O)N2CCOCC2)c1,> 56
7,O=c1c2ccccc2ncn1-c1cccc(Br)c1,5.5
8,CCc1cc(=O)[nH]c(SCC(=O)Nc2cc(C)on2)n1,> 44.1
9,Cc1cc2ccccc2cc1CN1CCCCC1,9.6
10,O=C1CC(N2CCSCC2)C(=O)N1c1ccc(Br)cc1 (stereo not given),> 53.3
11,Cc1nn(CCCC(=O)Nc2cccnc2Cl)c(C)c1[N+](=O)[O-],> 50.7
12,CCCC1(c2ccccc2)NC(=O)N(CC(=O)Nc2ccc3c(c2)OCCO3)C1=O (stereo not given),36
13,CC1(C)N([O-])C2=C(CCCC2)[N+]1=O,> 27.3
14,Cc1onc(-c2ccccc2)c1-c1csc(COc2ccccc2)n1,2.2
15,COc1ccccc1OCCCn1cc(C(C)=O)c2ccccc21,25.8
16,Cc1nc(N2CCOCC2)sc1C=O,> 31.8
17,O=C1CN(C(=S)Nc2ccc(OC(F)F)cc2)CCN1,> 45.2
18,O=C(COC(=O)c1cccnc1Cl)NC(=O)c1ccc(OC(F)F)cc1,10.1
19,Cc1cc(C)nc(Nc2ccccc2Cl)n1.Cl,10.4
20,O=C1CC(N2CCSCC2)C(=O)N1c1ccc(F)cc1 (stereo not given),> 44.2
21,Cc1nc(NC(=O)c2cncc(Br)c2)ccc1Br,2.1
22,O=c1[nH]c2ccccc2n2c(=S)[nH]nc12,> 32.7
23,COCC(C)NC(=S)Nc1ccccc1[N+](=O)[O-] (stereo not given),> 40.4
24,O=C(O)C(NS(=O)(=O)c1ccccc1)C(O)c1ccccc1 (stereo not given),33.9

row,Compound,solubility kinetic [µg/mL]
1,COc1ccccc1CNS(=O)(=O)c1ccc(Cl)s1,> 47.7
2,Cc1nc(N=C(N)N)nc2c(C)cccc12,29.8
3,Cc1cc(C(=O)N2CC(C)CC(C)C2)c(C)o1 (stereo not given),30.1
4,CN(CCOC(=O)c1ccc2c(c1)OCO2)C(C)(C)C.Cl,41.7
5,O=C(NC1CC2CCCC(C1)N2Cc1ccccc1)c1cccc(F)c1 (stereo not given),45.1
6,Cc1cccc(-c2noc(CNS(=O)(=O)c3ccccc3)n2)c1,> 49.4
7,CCn1c(=O)c2c(nc3n2CCCN3Cc2ccccc2)n(C)c1=O,13.7
8,Cc1cc(C(=O)Nc2cc(Br)ccc2O)on1,7.6
9,c1ccc2c(CN3CCSCC3)cccc2c1,4.2
10,CCCCCCN1C=CC(=C2C(=O)c3ccccc3C2=O)C=C1,< 0.7
11,NC(=O)c1cccnc1Oc1ccc(Cl)cc1Cl,37.1
12,Cc1c(Cl)cccc1NC(=O)Nc1cc(C(C)(C)C)on1,< 0.2
13,Cc1ccc(/C(O)=C2\C(=O)C(=O)N(CC(C)O)C2c2ccccn2)cc1 (stereo not given),> 52.9
14,NC1=C([N+](=O)[O-])C(c2ccc3c(c2)OCO3)C2=C(CCCC2=O)O1 (stereo not given),48.4
15,CCOC(=O)Cn1cc(C(=O)C(C)(C)C)c2ccccc21,> 43.1
16,CC(C)(CNc1ccc([N+](=O)[O-])cc1Cl)N1CCOCC1,1.4
17,Br.COc1ccc(-c2nc3n(c2C)CCC3)cc1,> 46.4
18,CC1CN(c2nc3ccccc3nc2NS(=O)(=O)c2ccccc2)CC(C)O1 (stereo not given),> 59.8
19,COc1ccc(C2NC(=O)CCC2[N+](=O)[O-])c(OC)c1 (stereo not given),> 42
20,Cc1ccc(S(=O)(=O)/N=C/c2c(O)ccc3ccccc23)cc1,30.8
21,Cc1ccc(C(=O)O)cc1NS(=O)(=O)c1ccc2ccccc2c1,> 51.2
22,O=C(/C=C/c1ccc2c(c1)OCO2)NCc1ccncc1,42.1
23,CC(=O)c1sc(-c2ccccc2)nc1C,13.9
24,COc1ccc(Sc2nc(-c3ccccc3)ncc2OC)cc1,< 0.3

row,Compound,solubility kinetic [µg/mL]
1,Cc1cccc(N2C(=O)CC(c3ccc(F)cc3)C3=C2COC3=O)c1 (stereo not given),> 50.6
2,CN1CCC(N(C)C(=O)c2ccc(Cl)c(S(=O)(=O)N3CCc4ccccc43)c2)CC1,> 67.2
3,CN1CC2([N+](=O)[O-])CC=C(Cl)C([N+](=O)[O-])(C1)C2 (stereo not given),> 39.3
4,N#Cc1ccccc1COC(=O)CCC(=O)c1cccs1,> 44.9
5,CC(=O)Cn1cnc2c(sc3nc(C)cc(C)c32)c1=O,7.2
6,CCOc1ccccc1NC(=O)NCc1ccc2c(c1)OCO2,0.8
7,O=C(NCc1ccncc1)NC1CCCCC1,> 35
8,O=C(CNC(=O)c1ccc2c(c1)OCO2)Nc1ncccc1O,> 47.3
9,CC1(C)COCN1C(=O)c1ccc(C#N)cc1,> 34.5
10,S=c1nc(-c2ccc(Br)cc2)[nH]c2ccccc12,0.7
11,CNC(=O)C(NC(=O)c1ccccc1)=C(C)C,> 34.8
12,CCOc1ccc(S(=O)(=O)NCc2ccccn2)c(C)c1C,> 48.1
13,COc1cccc(C=N[C@@H](CO)[C@@H](O)c2ccc([N+](=O)[O-])cc2)c1O,50.6
14,O=C(O)c1ccccc1Nc1cc(Cl)c2nonc2c1[N+](=O)[O-],43.3
15,Oc1ccccc1CNc1cccc2cccnc12,19.3
16,CCCCn1c(SCC(=O)N(C)C)nnc1-c1ccncc1,> 47.9
17,COc1ccc(-c2noc(=O)n2Cc2ccc(F)cc2Cl)cc1,3.5
18,COc1ccccc1CNc1nc(C)c(C(C)=O)s1,12.1
19,COc1cc(/C=C/C(=O)OCC(=O)Nc2cc(S(=O)(=O)N3CCCC3)ccc2Cl)cc(OC)c1OC,4.3
20,CCOc1ccc(NC(=O)c2cc(Cl)nc3ccccc23)cc1,0.4
21,CC(C(=O)Nc1ccccc1)N1CCN(C(=O)c2ccco2)CC1 (stereo not given),> 49.1
22,CN(C)/C=C1/OC(=O)C(C#N)=C1c1ccc(Cl)cc1,2.4
23,COc1cccc(OC)c1C1=NC(C)(C)CO1,> 35.3
24,CCCCN(C(=O)c1cc(-c2ccncc2)nc2ccccc12)c1c(N)n(CC(C)C)c(=O)[nH]c1=O,10

row,Compound,solubility kinetic [µg/mL]
1,N#C/C(=C\c1cc(Br)ccc1F)C(=O)NC1CC1,13.1
2,Cc1onc(-c2ccccc2)c1-c1ccnc(N)n1,33.8
3,CC(C)(C)C(=O)Nc1cccc(-c2ncon2)c1,> 36.8
4,CC(NC(=O)c1ccccc1)C(=O)NC1CCCc2ccccc21 (stereo not given),14.7
5,O=C(O)c1ccc(C2SCC(=O)N2Cc2ccco2)cc1 (stereo not given),> 45.5
6,COc1ccc(CC(=O)O/N=C(\N)c2ccccc2)cc1OC,37.5
7,CCOC(=O)Cc1csc(NC(=O)Nc2cccc(OC)c2)n1,5.8
8,Cc1cccc(C)c1NC(=O)C1CCN(S(C)(=O)=O)CC1,> 46.6
9,CSc1ccccc1NC(=O)COC(=O)c1cnc(C)cn1,> 47.6
10,Cc1ccc(C(=O)Nc2ccc3c(c2)OCCO3)cc1S(=O)(=O)N1CCOCC1,41.6
11,O=C(c1ccc(-c2cc(Cl)ccc2Cl)o1)N1CCOCC1,11.3
12,CC(=O)c1c(C)[nH]c(C(=O)Nc2nc(C)cs2)c1C,4.1
13,Oc1ccc(/C=C/c2ccc3cccc(O)c3n2)cc1Br,1.1
14,CCCCc1c(C)nc2ccccc2c1SCCC(=O)O,> 45.5
15,O=C(CN1C(=O)COc2ccc(Cl)cc21)Nc1ccccn1,17
16,COc1ccc(CNC(=O)c2cc3ccccc3oc2=O)cc1,< 0.7
17,Cc1nn(C)c(C)c1NS(=O)(=O)c1ccc(Cl)s1,> 45.9
18,O=C(Nc1ccccc1C(=O)NC1CC1)c1ccccc1F,44.6
19,N#Cc1ccc(COc2cccnc2[N+](=O)[O-])cc1,6.3
20,CN(C)c1ccc(C(=O)N2CCCC2)cc1,> 32.7
21,CCOC(=O)/C(C#N)=C/Nc1ccsc1C(=O)OC,< 0.3
22,Cc1nc(NC(=S)NC(=O)c2ccccc2)sc1C,0.3
23,O=C(c1c[nH]c2ccccc12)C(F)(F)F,20.2
24,Cc1noc(C(=O)Nc2cccnc2Cl)c1Cl,> 40.8

row,Compound,solubility kinetic [µg/mL]
1,CCOC(=O)C1=C(C)NC(=O)NC1c1cccs1 (stereo not given),> 39.9
2,O=C(COC(=O)Cc1ccc(Br)cc1)NCC1CCCO1 (stereo not given),> 53.4
3,Cc1cccc(C)c1N1C(=O)C(Cl)=C(N2CCCC2)C1=O,31.2
4,C=CCOn1c(=O)c(-c2ccc(Br)cc2)[n+]([O-])c2ccccc21,0.4
5,NC(=O)Nc1ccc(C(=O)OCC(=O)NC2CCCc3ccccc32)cc1 (stereo not given),11
6,O=C(NC1CCCCC1)C1CCC(=O)N(C2CC2)C1 (stereo not given),> 39.7
7,Cl.c1cncc(CNc2ncnc3sc4c(c23)CCC4)c1,7.5
8,c1ccc(-n2cnc3cc(NCc4ccco4)ccc32)cc1,35.5
9,COc1ccc(C(=O)N2CCCC(C(=O)O)C2)c2ccccc12 (stereo not given),> 47
10,O=C(Nc1ccc(F)cc1)Nc1ccccc1N1CCCCC1,0.3
11,Cc1[nH]c2ccccc2c1C(c1ccccn1)N1CCCC1 (stereo not given),39.9
12,CC1CC(C)CN(C(=O)c2ccc3c(c2)OCCO3)C1 (stereo not given),> 41.3
13,CC1CCC(NC(=O)CC(NC(N)=O)c2ccccc2Cl)CC1 (stereo not given),46.6
14,CCC1CN(C(=O)NCc2ccc(C)cc2)c2ccccc2O1 (stereo not given),20.8
15,CCOC(=O)CCSc1n[nH]c(=S)s1,> 37.6
16,CCOC(=O)Cn1cc(C#N)c2cccc(CC)c21,35.3
17,Cc1cc2nc(-c3ccc(=O)[nH]c3)n(C)c2cc1C,14.1
18,O=C(CSc1nc2ccccc2[nH]1)NCc1ccc(F)cc1,> 47.3
19,Cc1ccc(S(=O)(=O)Nc2cccc(S(=O)(=O)Nc3ccccc3C(=O)O)c2)c(C)c1,> 69.1
20,CCn1cc(C(=O)OCC(=O)Nc2ccccc2OC(F)F)c(=O)c2ccc(C)nc21,4.8
21,O=C1Nc2ccccc2C1C(C[N+](=O)[O-])c1ccccn1 (stereo not given),> 42.5
22,Cc1cc(C)nc(NC(=S)NC(=O)c2ccccc2)n1,5.8
23,O=C(OCc1cnc(Cl)s1)c1c(F)cccc1F,21.5
24,COc1ccc(CCNc2ncccc2C#N)cc1OC,> 42.5
